Test results published in ChEMBL document CHEMBL1201862, “PubChem BioAssay data set” (2004).
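In this assay, cells in 96-well plates receive the compound at five concentrations for 48 hours. Endpoints are linearly interpolated between the surrounding concentrations. GI50: concentration for 50% inhibition of growth.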 Activity calls are given as the source filed them. No stated cut-off is given here; in the data, active = GI50 up to about 1.1 µM and inactive = higher.

What was measured:
Assay in all cases: growth of human tumour cells (NCI), 48 h
786-0 = tested on: 786-0
A498 = tested on: A498
CAKI-1 = tested on: CAKI-1
HL-60 = tested on: HL-60
IGROV-1 = tested on: IGROV-1
K562 = tested on: K562
LOX IMVI = tested on: LOX IMVI
M14 = tested on: M14
MOLT-4 = tested on: MOLT-4
OVCAR-3 = tested on: OVCAR-3
RXF 393 = tested on: RXF 393
SF-539 = tested on: SF-539
SN12C = tested on: SN12C
TK-10 = tested on: TK-10
U-251 = tested on: U-251
UO-31 = tested on: UO-31
HCC 2998 = tested on: HCC 2998

Measured: GI50

Cc1ccc([N+](=O)[O-])cc1NC(=O)c1cccc([N+](=O)[O-])c1O
inactive: 786-0 28.9 µM | A498 11.3 µM | CAKI-1 17.8 µM | HL-60 5.01 µM | IGROV-1 11.7 µM | K562 12.3 µM | LOX IMVI 26.6 µM | M14 16.8 µM | MOLT-4 15.6 µM | OVCAR-3 7.24 µM | RXF 393 3.99 µM | SF-539 12.3 µM | SN12C 23.8 µM | TK-10 31.2 µM | U-251 15.9 µM | UO-31 6.27 µM

CC(=O)OCC1OC(N2C(=O)/C(=N\NC(N)=S)c3ccc([N+](=O)[O-])cc32)C(OC(C)=O)C1OC(C)=O (stereo unspecified)
inactive: 786-0 19.8 µM | CAKI-1 38.4 µM | HCC 2998 26.4 µM | HL-60 16.6 µM | IGROV-1 48.8 µM | K562 18.7 µM | LOX IMVI 19.1 µM | M14 70.5 µM | MOLT-4 15.3 µM | OVCAR-3 26.4 µM | RXF 393 20.2 µM | SF-539 24.1 µM | SN12C 36.1 µM | TK-10 > 100 µM | U-251 28.1 µM

C/N=C1\S/C(=N\c2ccc(N(C)C)cc2)N1C
inactive: 786-0 42.8 µM | A498 23 µM | HCC 2998 33.2 µM | HL-60 34.4 µM | IGROV-1 51.8 µM | K562 29.7 µM | LOX IMVI 46 µM | M14 33.1 µM | MOLT-4 43 µM | OVCAR-3 39.4 µM | SF-539 32.1 µM | SN12C 31 µM | TK-10 55.7 µM | U-251 33.9 µM | UO-31 31.6 µM

O=C1N2Cc3c4ccc5c3CN3C(=O)N6Cc7c(ccc(c7CN1C6(c1ccccc1)C23c1ccccc1)OCCOCCOc1cc(Br)c(Br)cc1OCCOCCO4)OCCOCCOc1cc(Br)c(Br)cc1OCCOCCO5 (stereo unspecified)
inactive: 786-0 > 100 µM | CAKI-1 > 100 µM | HCC 2998 > 100 µM | IGROV-1 44 µM | K562 > 100 µM | M14 21.9 µM | MOLT-4 > 100 µM | OVCAR-3 > 100 µM | RXF 393 > 100 µM | SF-539 20.1 µM | SN12C 39.3 µM | TK-10 65.9 µM | U-251 > 100 µM | UO-31 > 100 µM

CCNC(=O)/C=C/CCC#Cc1ccc(-c2ccc(-c3cccs3)s2)s1
inactive: 786-0 > 100 µM | CAKI-1 > 100 µM | HCC 2998 > 100 µM | HL-60 > 100 µM | IGROV-1 > 100 µM | LOX IMVI > 100 µM | M14 5.61 µM | MOLT-4 > 100 µM | OVCAR-3 > 100 µM | RXF 393 > 100 µM | SF-539 > 100 µM | TK-10 > 100 µM | U-251 > 100 µM | UO-31 > 100 µM

COc1cc2cc[n+](C)c(Cc3ccccc3)c2cc1OC
inactive: 786-0 > 100 µM | A498 > 100 µM | IGROV-1 > 100 µM | K562 > 100 µM | LOX IMVI > 100 µM | M14 > 100 µM | MOLT-4 > 100 µM | OVCAR-3 > 100 µM | RXF 393 > 100 µM | SF-539 > 100 µM | SN12C > 100 µM | TK-10 > 100 µM | U-251 > 100 µM | UO-31 > 100 µM

CC1CCc2c(sc3ncnc(N/N=C/c4ccc(Cl)cc4)c23)C1 (stereo unspecified)
inactive: 786-0 34.7 µM | CAKI-1 40.8 µM | HCC 2998 48.1 µM | HL-60 19.2 µM | IGROV-1 53.1 µM | K562 18.6 µM | LOX IMVI 22.1 µM | M14 28 µM | MOLT-4 20.6 µM | OVCAR-3 35.4 µM | RXF 393 29.6 µM | SF-539 > 10 µM | SN12C 33.4 µM | TK-10 38.2 µM | U-251 31.9 µM | UO-31 4.78 µM

CC(=O)O[C@]12CCCCCCC1C1(O)C(O)CCC[C@H]12 (stereo partly specified)
inactive: 786-0 > 100 µM | HL-60 > 10 µM | K562 > 100 µM | LOX IMVI > 100 µM | M14 > 100 µM | MOLT-4 > 100 µM | RXF 393 > 100 µM | SN12C > 100 µM | TK-10 > 100 µM | U-251 > 100 µM | UO-31 > 100 µM

C=CCN1C(=O)CS/C1=N\NC(=O)c1c(C)nc2sccn12
inactive: 786-0 > 100 µM | CAKI-1 > 100 µM | HCC 2998 > 100 µM | HL-60 > 100 µM | IGROV-1 > 100 µM | K562 > 100 µM | LOX IMVI > 100 µM | MOLT-4 > 100 µM | OVCAR-3 > 100 µM | RXF 393 > 100 µM | SF-539 > 100 µM | SN12C > 100 µM | TK-10 > 100 µM | U-251 > 100 µM

CCOC(=O)CCc1c(C)c2c(OC(C)=O)cc(OC(C)=O)cc2oc1=O
inactive: 786-0 78.7 µM | CAKI-1 > 100 µM | HCC 2998 82.8 µM | HL-60 40.2 µM | LOX IMVI > 10 µM | M14 43 µM | OVCAR-3 27.4 µM | RXF 393 21.4 µM | SF-539 70 µM | SN12C 28.4 µM | TK-10 > 100 µM | U-251 55.6 µM | UO-31 46.2 µM

CC(C)C1COC(C(C)(C)C2=N[C@@H](C(C)C)CO2)=N1 (stereo partly specified)
inactive: 786-0 > 100 µM | HCC 2998 > 100 µM | HL-60 > 100 µM | IGROV-1 > 100 µM | K562 > 100 µM | LOX IMVI > 100 µM | M14 > 100 µM | MOLT-4 > 100 µM | OVCAR-3 > 100 µM | RXF 393 > 100 µM | SF-539 > 100 µM | SN12C > 100 µM | TK-10 > 100 µM | U-251 > 100 µM | UO-31 > 100 µM

NC(=O)NC(=O)C1CCC(=O)N1S(=O)(=O)c1ccc(Cl)cc1 (stereo unspecified)
inactive: 786-0 > 100 µM | CAKI-1 > 100 µM | HL-60 > 100 µM | IGROV-1 > 100 µM | K562 > 100 µM | M14 > 100 µM | MOLT-4 > 100 µM | OVCAR-3 > 100 µM | RXF 393 > 100 µM | SF-539 > 100 µM | SN12C > 100 µM | TK-10 > 100 µM | U-251 > 100 µM | UO-31 > 100 µM

COc1ccc(C2NCCc3c2[nH]c2ccccc32)cc1 (stereo unspecified)
inactive: 786-0 83.8 µM | HCC 2998 24.7 µM | HL-60 > 100 µM | IGROV-1 > 100 µM | K562 60.8 µM | LOX IMVI > 100 µM | M14 23.2 µM | MOLT-4 > 100 µM | OVCAR-3 > 100 µM | RXF 393 67.1 µM | SF-539 > 100 µM | SN12C > 100 µM | TK-10 > 100 µM | U-251 > 100 µM | UO-31 42.3 µM
